According to ChEMBL document CHEMBL1135274, “Spirocyclic nonpeptide glycoprotein IIb-IIIa antagonists. Part 3: synthesis and SAR of potent and specific 2,8-diazaspiro[4.5]decanes” (Bioorg Med Chem Lett, 2002):

Tests used:
[1] = biological target: Integrin alpha-IIb/beta-3 (Homo sapiens, UniProt P05106+P08514); assay: In vitro activity to block the binding of fibrinogen to purified human fibrinogen receptor.; format: protein-complex assay
Homo sapiens = species on record: Homo sapiens; assay: In vitro ability to inhibit aggregation of ADP stimulated human platelets using PRP assay.; format: functional
[2] = Plasma half life was reported after a intravenous dose of 1 mg/kg in Dawley rat; format: ADME, organism-based; parameters: dose 1 mg/kg, route intravenous; details: Sprague-Dawley
[3] = Oral bioavailability in rat (Sprague-Dawley) (dose 1 mg/kg p.o.); format: ADME, organism-based; details: in vivo

Integrin alpha-IIb/beta-3, sequence (P05106 27-788 limits assumed): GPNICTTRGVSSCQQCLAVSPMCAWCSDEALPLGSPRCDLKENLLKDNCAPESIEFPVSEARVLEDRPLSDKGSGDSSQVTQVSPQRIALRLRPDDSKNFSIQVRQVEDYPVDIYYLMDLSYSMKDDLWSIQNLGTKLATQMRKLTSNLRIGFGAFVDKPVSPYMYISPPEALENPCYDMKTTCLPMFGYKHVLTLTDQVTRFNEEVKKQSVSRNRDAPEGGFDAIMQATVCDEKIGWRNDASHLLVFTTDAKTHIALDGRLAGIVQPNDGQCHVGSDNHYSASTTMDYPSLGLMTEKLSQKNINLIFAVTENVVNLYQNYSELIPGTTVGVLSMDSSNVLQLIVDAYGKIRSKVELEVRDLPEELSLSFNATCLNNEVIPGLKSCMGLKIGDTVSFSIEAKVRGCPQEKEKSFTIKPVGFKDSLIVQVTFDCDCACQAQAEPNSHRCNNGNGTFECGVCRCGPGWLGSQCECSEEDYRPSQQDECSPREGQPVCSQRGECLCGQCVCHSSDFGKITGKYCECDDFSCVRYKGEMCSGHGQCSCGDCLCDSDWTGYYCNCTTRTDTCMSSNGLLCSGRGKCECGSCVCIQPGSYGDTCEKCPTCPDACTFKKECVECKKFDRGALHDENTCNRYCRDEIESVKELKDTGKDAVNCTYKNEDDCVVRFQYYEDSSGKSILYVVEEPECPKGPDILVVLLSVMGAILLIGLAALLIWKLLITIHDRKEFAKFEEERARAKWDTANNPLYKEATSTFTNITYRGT
Integrin alpha-IIb/beta-3, sequence (P08514 32-887 limits assumed): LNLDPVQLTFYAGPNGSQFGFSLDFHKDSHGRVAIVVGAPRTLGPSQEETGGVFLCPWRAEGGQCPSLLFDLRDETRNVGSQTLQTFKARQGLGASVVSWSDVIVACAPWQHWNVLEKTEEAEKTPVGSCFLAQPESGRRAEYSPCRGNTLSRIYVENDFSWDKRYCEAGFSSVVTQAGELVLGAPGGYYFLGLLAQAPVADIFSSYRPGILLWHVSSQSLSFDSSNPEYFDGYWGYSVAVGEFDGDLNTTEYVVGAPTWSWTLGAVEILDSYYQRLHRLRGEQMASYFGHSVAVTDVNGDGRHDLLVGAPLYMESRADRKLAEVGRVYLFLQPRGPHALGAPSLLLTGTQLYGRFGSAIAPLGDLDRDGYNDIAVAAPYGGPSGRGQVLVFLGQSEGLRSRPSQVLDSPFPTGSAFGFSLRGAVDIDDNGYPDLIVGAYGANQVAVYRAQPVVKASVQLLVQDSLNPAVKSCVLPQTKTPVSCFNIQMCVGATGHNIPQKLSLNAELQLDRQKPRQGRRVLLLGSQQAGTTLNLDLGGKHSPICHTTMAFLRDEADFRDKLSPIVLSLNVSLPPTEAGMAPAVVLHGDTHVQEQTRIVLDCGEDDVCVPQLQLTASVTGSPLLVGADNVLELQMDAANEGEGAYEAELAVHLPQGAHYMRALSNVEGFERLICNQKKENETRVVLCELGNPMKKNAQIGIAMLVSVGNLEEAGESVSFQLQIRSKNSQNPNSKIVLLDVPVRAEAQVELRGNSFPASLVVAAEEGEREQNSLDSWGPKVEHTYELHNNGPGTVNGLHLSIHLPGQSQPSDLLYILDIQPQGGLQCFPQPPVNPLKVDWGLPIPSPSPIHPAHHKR
Integrin alpha-IIb/beta-3, sequence (P08514 891-1039 limits assumed): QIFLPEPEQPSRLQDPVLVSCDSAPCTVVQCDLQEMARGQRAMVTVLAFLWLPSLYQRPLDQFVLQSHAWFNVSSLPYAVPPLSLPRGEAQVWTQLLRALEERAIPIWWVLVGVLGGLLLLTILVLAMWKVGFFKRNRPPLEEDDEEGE

IC50 [1] [nM]	IC50 (Homo sapiens) [nM]	half-life [2] [min]	bioavailability [3] [%]	SMILES
320	9500	–	–	O=C(O)CN1CCC(C(=O)N2CCC3(CC2)CCN(c2ccncc2)C3)CC1
–	24100	–	–	O=C(O)CCC(=O)N1CCN(C(=O)N2CCC3(CC2)CCN(c2ccncc2)C3)CC1
–	700	–	–	O=C(O)CC(=O)N1CCCN(C(=O)N2CCC3(CC2)CCN(c2ccncc2)C3)CC1
–	1580	–	–	O=C(O)CC(=O)N1CCC(C(=O)N2CCC3(CCN(c4ccncc4)CC3)C2)CC1
238	8340	–	–	O=C(O)CCN1CCN(C(=O)N2CCC3(CCN(c4ccncc4)CC3)C2)CC1=O
2	270	22.8	12	O=C(O)[C@H](CCC(=O)N1CCC2(CC1)CCN(c1ccncc1)C2)NS(=O)(=O)c1cnoc1
11900	10600	–	–	O=C(O)CCCCNC(=O)N1CCC2(CC1)CCN(c1ccncc1)C2
25	4100	–	–	O=C(N[C@@H](CCC(=O)N1CCC2(CC1)CCN(c1ccncc1)C2)C(=O)O)OCc1ccccc1
4200	55000	–	–	O=C(O)C1CCN(C(=O)N2CCC3(CC2)CCN(c2ccncc2)C3)CC1
–	1000	–	–	O=C(O)CCN1CCC(C(=O)N2CCC3(CC2)CCN(c2ccncc2)C3)CC1
4	260	58.8	10	O=C(O)CC(=O)N1CCC(C(=O)N2CCC3(CC2)CCN(c2ccncc2)C3)CC1
–	950	–	–	O=C(O)Cn1ccc2cc(C(=O)N3CCC4(CC3)CCN(c3ccncc3)C4)ccc21
1200	12400	–	–	CN(CC(=O)O)C1CCN(C(=O)N2CCC3(CC2)CCN(c2ccncc2)C3)CC1
136	680	–	–	O=C(O)CC(=O)N1CCN(C(=O)N2CCC3(CC2)CCN(c2ccncc2)C3)CC1
–	18800	–	–	O=C(O)CCCCCCC(=O)N1CCC2(CCN(c3ccncc3)CC2)C1
225	3300	–	–	CC(CC(=O)O)N1CCC(C(=O)N2CCC3(CC2)CCN(c2ccncc2)C3)CC1 (stereo unspecified)
153	1040	–	–	O=C(O)COC1CCN(C(=O)N2CCC3(CCN(c4ccncc4)CC3)C2)CC1
–	3800	–	–	O=C(O)COC1CCN(C(=O)N2CCC3(CC2)CCN(c2ccncc2)C3)CC1

IC50 [1] [nM]	IC50 (Homo sapiens) [nM]	half-life [2] [min]	bioavailability [3] [%]	SMILES
–	5900	–	–	O=C(O)CC(=O)NC1CCN(C(=O)N2CCC3(CC2)CCN(c2ccncc2)C3)C1 (stereo unspecified)
–	11300	–	–	O=C(O)COc1ccc(C(=O)N2CCC3(CC2)CCN(c2ccncc2)C3)cc1
> 50000	80000	–	–	O=C(O)CCCNC(=O)N1CCC2(CC1)CCN(c1ccncc1)C2
–	8900	–	–	O=C(O)CN1CCN(C(=O)N2CCC3(CC2)CCN(c2ccncc2)C3)CC1
87	3200	–	–	O=C(O)CCN1CCN(C(=O)N2CCC3(CC2)CCN(c2ccncc2)C3)CC1
115	1200	–	–	O=C(O)CC1CCN(C(=O)N2CCC3(CC2)CCN(c2ccncc2)C3)CC1
–	34600	–	–	O=C(O)CCNC(=O)N1CCC2(CC1)CCN(c1ccncc1)C2
25	1180	–	–	O=C(O)CN1CCN(C(=O)N2CCC3(CCN(c4ccncc4)CC3)C2)CC1=O
–	2800	–	–	O=C(O)COCC1CCN(C(=O)N2CCC3(CC2)CCN(c2ccncc2)C3)CC1
254	3700	–	–	O=C(O)CCN1CCCN(C(=O)N2CCC3(CC2)CCN(c2ccncc2)C3)CC1
43	1300	–	–	O=C(O)CCCCCC(=O)N1CCC2(CCN(c3ccncc3)CC2)C1
873	18300	–	–	O=C(O)COc1cccc(C(=O)N2CCC3(CC2)CCN(c2ccncc2)C3)c1
> 50000	74000	–	–	O=C(O)CCCCCNC(=O)N1CCC2(CC1)CCN(c1ccncc1)C2
90	1100	–	–	O=C(O)CS(=O)(=O)N1CCC(C(=O)N2CCC3(CC2)CCN(c2ccncc2)C3)CC1
1800	23300	–	–	O=C(O)CCn1ccc2cc(C(=O)N3CCC4(CC3)CCN(c3ccncc3)C4)ccc21
–	4000	–	–	CCCCOC(=O)N[C@@H](CCC(=O)N1CCC2(CC1)CCN(c1ccncc1)C2)C(=O)O
> 50000	80000	–	–	O=C(O)CCCCC(=O)N1CCC2(CCN(c3ccncc3)CC2)C1
